Test [1] deals with T1, hPSA peptide RHSLFHP coated onto carboxyl magnetic particles (Homo sapiens, UniProt P07288).
T1 construct: Human prostate specific antigen (hPSA) peptide 53–59: RHSLFHP; purchased GenScript; host or cells: synthetic peptide
The test is described as follows: Magnetic particle enzyme immunoassay (MPEIA). It is filed as binding. The note with it: peptide 1.09–70 µM, 30 min, room temperature; streptavidin-peroxidase/OPD, 450 nm; r^2 = 0.996; mean ± SEM (SEM 0.20 µM); read-out: dissociation constant (Kd). As to the method:
Briefly, the reaction mixture was composed of 2 mL sodium acetate buffer (0.01M, pH 5.0), 2 mg of peptide and 2 mL of 2.5% w/v carboxyl magnetic particles―1.14 μm, 20 mg of EDC. Reactions proceeded in glass reaction tubes overnight at room temperature in a rotary mixer. Tubes were centrifuged at 3000× g for 15 min, supernatant was carefully discarded, and the pellets were washed twice in 4 mL isotonic buffered saline (IBS), followed by centrifugation. After washing, coated magnetic particles were resuspended in 4 mL of PBS containing 0.05% Tween 20.
Two folds serial dilutions (1.09–70 µM) of biotinylated antisense peptide AVRDKVG were made in 96-well microtiter plates to generate standard curves (Figure 4b). Mismatched peptide Biotin-EHFRW was used as a negative control (Figure 4b). A suspension (1.25% w/v) of carboxyl magnetic particles, coated with sense peptide RHSLFHP, was added to each well (40 µL/well). The plates were incubated at room temperature for 30 min and washed with PBS-Tween 20 five times. The washing solution was removed each time using the Spherotech UltraMag Separator (Sperotech, Inc., Lake Forest, IL, USA).
A blocking solution (PBS with 1% BSA) was added to the wells and incubated at room temperature for one hour. […] The absorbances were read at 450 nm on a multiwell plate reader. The data were analyzed using GraphPad Prism software version 5.

Test [2] concerns the target T2, hPSA peptide RHSLFHP (residues 53–59) (Homo sapiens, UniProt P07288).
T2 construct: Human prostate specific antigen (hPSA) peptide 53–59: RHSLFHP; purchased GenScript; host or cells: synthetic peptide
The test is described as follows: Microscale thermophoresis (MST). In kind it is binding. As to the method:
The binding between the biotinylated antisense peptide AVRDKVG and a titrant, i.e., hPSA peptide RHSLFHP (Figure 3b), was observed by the method of microscale thermophoresis (MST). MST-analysis was performed using the Monolith.NT.115 instrument (NanoTemper Technologies GmbH, Munich, Germany). Biotin-AVRDKVG antisense directed to the hPSA region 53–59 was labeled with DY-495 (Red). The labeling procedure and the subsequent removal of unattached dye were performed within 45 min. A serial dilution of the non-labeled hPSA titrant was prepared in a 10 mM phosphate buffer. The concentration of biotin-hPSA antisense labelled with DY-495 was kept constant, while the concentration of the non-fluorescent binding partner (hPSA peptide RHSLFHP53–59) was varied between 0.0854 µM and 2.8 mM. After a short incubation, the samples were loaded into MST NT.115 standard glass capillaries and the MST-analysis was performed. The data were analyzed using GraphPad Prism software version 5.
(In general: In MST a laser heats a spot of the sample, and binding alters the fluorescence response.)

Another test concerns liver tissue. Nature of the test: Immunohistochemical staining of negative control tissue (protocol 2). Further details: species or system human. As to the method:
Immunohistochemistry was performed on deparafinized slides (xylen and a series of ethanol solutions) at room temperature (20–25 °C). The phosphate-buffered saline (PBS) was used, with a pH of 7.2 and containing disodium hydrogen phosphate, sodium chloride, potassium chloride and potassium dihydrogen phosphate was used. PBS stock solution: 4 g KH2PO4, 23 g Na2HPO4, 4 g KCl, 160 g NaCl and 810 mL distilled water. Before staining, 100 mL of stock solution was diluted with 1900 mL of distilled water.
Each of the two immunohistochemistry protocols for PSA staining consisted of six steps. Steps 1, 4, 5 and 6 of protocol 1 and protocol 2 were identical, while steps 2 and 3 differed (Figure 5 and Figure 6). […] They were analyzed using an Olympus BX41 microscope, with an Olympus DP71 camera set to three levels of magnification: less than 40×, 100×, and 500×.
The staining protocol 2 was a modified IHC protocol 1, as follows: In step 2 we used antisense peptide Biotin-AVRDKVG, instead of the primary monoclonal mouse anti-human PSA antibody, in step 3 we used rabbit polyclonal antibody to biotin conjugated to HRP, instead of HRP labeled polymer conjugated to goat anti-mouse immunoglobulins (Figure 5), with peptide Biotin-EHFRW as a negative control (Figure 7). […] The scale is presented in Table A2, and the final results given in Table 4 are expressed as a sum of scores. […]

A word on the Kd: it is the constant that tells how readily two partners part at equilibrium.

Structures are written as SMILES. Where a SMILES comes first, the peptide text is derived from it. The star is where a group is joined. Biotin = O=C1N[C@H]2[C@H](CS[C@H]2CCCCC(=O)*)N1

As to `CC(C)[C@H](NC(=O)[C@H](C)NC(=O)CCCC[C@@H]1SC[C@@H]2NC(=O)N[C@@H]21)C(=O)N[C@@H](CCCNC(=N)N)C(=O)N[C@@H](CC(=O)O)C(=O)N[C@@H](CCCCN)C(=O)N[C@H](C(=O)NCC(=O)O)C(C)C` [Biotin-AVRDKVG] (Biotin-AVRDKVG-OH), the dissociation constant Kd in test [1] was 24.6 µM; in test [2] (Biotin-AVRDKVG labelled with DY-495, constant, RHSLFHP 0.0854 µM–2.8 mM, 10 mM phosphate buffer, r^2 = 0.989, mean ± SEM, read-out: dissociation constant (Kd)), 24.3 ± 0.74 µM. Besides, the “effect of N-terminal biotinylation on binding” value in test [2] (versus Kd of the non-biotinylated peptide by tryptophan fluorescence) is reported as “does not significantly alter the binding to hPSA region 53–59 (RHSLFHP)”. Also, in the test on liver tissue, the “staining of negative control tissue” value is “did not stain”.

The record behind these values is article PMC6540241, “Targeting Tumor Markers with Antisense Peptides: An Example of Human Prostate Specific Antigen” (International Journal of Molecular Sciences, 2019).
